For one data set, the system named is min mouse. The following applies: background statement on NSAID's; cited from earlier work.
Data set [1] deals with Min mouse (C57BL/6J-Min/+). In words: in vivo test procedure emulating FAP: Min mouse (C57BL/6J-Min/+), compound blended with AIN-93G chow for 60 days, intestinal polyps counted on day 61. The procedure:
The polyps that develop in Min mice express EGFR and have activated COX-2.
On day 61, the animals were euthanized with CO2 inhalation, and the entire intestinal tract from stomach to anus was removed. The intestinal tract was injected with Bouins fixative, and allowed to fix for several days. The intestinal tracts were then opened and the number of polyps counted.

Take `CC1=C(CC(=O)O)c2cc(F)ccc2/C1=C\c1ccc([S+](C)[O-])cc1` (stereo not shown) [sulindac]: in the data set with min mouse, the “intestinal polyp formulation in min mice (NSAID's)” value was “can reduce (but not eradicate) intestinal polyp formulation”.
As to `CCOc1cc2ncc(C#N)c(Nc3ccc(F)c(Cl)c3)c2cc1NC(=O)C=CCN(C)C` [Example 399, 4-Dimethylamino-but-2-enoic acid [4-(3-chloro-4-fluoro-phenylamino)-3-cyano-7-ethoxy-quinolin-6-yl]-amide], in data set [1], the “reducing polyp numbers in mice” value is listed as “effective in significantly reducing polyp numbers”.
Regarding `CCc1cccc2c3c([nH]c12)C(CC)(CC(=O)O)OCC3` (stereo not shown) [etodoloc], the “intestinal polyp formulation in min mice (NSAID's)” value with min mouse is listed as “can reduce (but not eradicate) intestinal polyp formulation”.
Compound `CC(C)N(C)CC#CC(=O)Nc1ccc2ncc(C#N)c(Nc3cccc(Br)c3)c2c1` [Example 191, N-[4-[(3-Bromophenyl)amino]-3-cyano-6-quinolinyl]-4-(N-isopropyl-N-methylamino)-2-butynamide] registered a melting point of 124 to 126 °C.
Same read-out and setting: the same measure for `COc1cccc2c(Nc3c(F)cc(F)cc3F)c(C#N)cnc12` [Example 280, 8-Methoxy-4-(2,4,6-trifluoro-phenylamino)-quinoline-3-carbonitrile]: 297 °C (dec.); for `COCC#CC(=O)Nc1ccc2ncc(C#N)c(Nc3cccc(Br)c3)c2c1` [Example 330, N-[4-[(3-Bromophenyl)amino]-3-cyano-6-quinolinyl]-4-methoxy-2-butynamide]: 197 °C (dec.); for `N#Cc1cnc2ccc(NC(=O)C#CCN3CCOCC3)cc2c1Nc1cccc(Br)c1` [Example 58, N-[4-[(3-Bromophenyl)amino]-3-cyano-6-quinolinyl]-4-morpholino-2-butynamide]: 112 to 115 °C.

As a reminder, the melting point is the temperature of the solid-liquid transition.
